Measured values reported in patent US9684238B2, “Fluorene-type compound, photopolymerization initiator comprising said fluorene-type compound, and photosensitive composition containing said photopolymerization initiator” (TOKYO OHKA KOGYO CO., LTD., priority 2012, dated 2017).

What was measured:
[1] = Absorption coefficient (absorbance of 0.001% solution in tetrahydrofuran); assay type: physicochemical; conditions: for Λ max (absorption maximum wavelength): 0.001% (wt/vol) in tetrahydrofuran, from 280 nm to 400 nm; for Absorption coefficient at 365 nm / Absorption coefficient at Λ max: 0.001% (wt/vol) solution in tetrahydrofuran
Summary of the method: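 Absorbance of a 0.001% (wt/vol) solution in tetrahydrofuran recorded by spectrophotometer. Absorption maximum wavelength (λmax) taken from the spectrum within 280–400 nm.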

[2] = Decomposition point by thermal analysis (TG-DTA); assay type: physicochemical; conditions: 5.0 mg
Description: The compounds 1, 2, 4, 6, 8, 9, 11, 12, 13, 15, 16, D-1, D-3, D-4, D-7, D-8, D-9, D-12, D-14, D-15, D-20, C-1, and C-2 were each subjected to measurement with a thermal analysis apparatus (TG-DTA) (manufactured by Rigaku Corporation, trade name: “Thermo Plus EVO TG 8120”) by using 5.0 mg thereof.

[3] = Solubility in PGME, PGMEA and ethyl lactate; assay type: physicochemical; conditions: for Solubility Ethyl lactate: in 100 parts by weight of ethyl lactate; for Solubility Ethyl lactate / Solubility PGMEA / Solubility PGME: room temperature; for Solubility PGMEA: in 100 parts by weight of propylene glycol monomethyl ether acetate; for Solubility PGME: in 100 parts by weight of propylene glycol monomethyl ether
[4] = Evaluation 1: 20-μm pattern line width of transparent photosensitive composition; conditions: transparent composition, initiator 0.4 mmol
[5] = Average transmittance of composition; assay type: physicochemical; conditions: photosensitive composition, quartz cell, optical path length 1 cm
Description: The average transmittance (%) of each of the photosensitive resin compositions obtained in Examples 1 to 9, Examples 2-1 to 2-10, and Comparative Examples 1 and 2 in the range of from 400 nm to 700 nm was measured with a spectrophotometer (manufactured by Hitachi High-Technologies Corporation, trade name: “U-3900H”, quartz cell, optical path length; 1 cm).

[6] = Transmittance of transparent cured film; assay type: physicochemical; conditions: for Average transmittance (700 nm to 400 nm) Transparent cured film / Transmittance (400 nm) Transparent cured film: cured at exposure energy quantity 80 mJ/cm^2
Summary of the method: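 Films cured at 80 mJ/cm^2 exposure, otherwise prepared as in the earlier film evaluation. Spectrophotometer read in quartz cell, 1 cm path, giving transmittance (%) at 400 nm and average transmittance (%) over 400–700 nm.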

[7] = Evaluation 1: 20-μm pattern line width of transparent photosensitive composition; conditions: initiator 0.4 mmol, exposure energy quantity 30 mJ/cm^2
[8] = Evaluation 3: 20-μm pattern line width of black photosensitive composition; conditions: black composition (carbon black, cardo resin), initiator 0.4 mmol
Summary of the method: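 Composition spin-coated on glass to 1.0 μm dry thickness, dried 90 °C for 10 min, exposed at 10–80 mJ/cm^2 via high-pressure mercury lamp through 20 μm negative mask, developed in 0.1 wt % TMAH, rinsed. Line width of remaining cured film measured; larger width means higher sensitivity.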

[9] = exposure energy quantity 5 mJ/cm^2
[10] = exposure energy quantity 10 mJ/cm^2
[11] = exposure energy quantity 20 mJ/cm^2
[12] = exposure energy quantity 40 mJ/cm^2
[13] = photopolymerization initiator containing the compound

Row | Λ max (absorption maximum wavelength) [1] [nm] | Absorption coefficient at 365 nm [1] [mL/mg/cm] | Absorption coefficient at Λ max [1] [mL/mg/cm] | Decomposition point [2] [°C] | Average transmittance (700 nm to 400 nm) Solution [5] [%] | Average transmittance (700 nm to 400 nm) Transparent cured film [6] [%] | Transmittance (400 nm) Transparent cured film [6] [%] | Compound | Solubility Ethyl lactate [3] | Solubility PGMEA [3] | Solubility PGME [3] | 20-μm pattern line width [4, 9] | 20-μm pattern line width [4, 10] | 20-μm pattern line width [4, 11] | 20-μm pattern line width [4, 12] | 20-μm pattern line width [7] | 20-μm pattern line width ([8]; 10 mJ/cm^2) | 20-μm pattern line width ([8]; 20 mJ/cm^2) | 20-μm pattern line width ([8]; 40 mJ/cm^2) | 20-μm pattern line width ([8]; 60 mJ/cm^2) | 20-μm pattern line width ([8]; 80 mJ/cm^2) | further results
1 | 341.5 | 21.9 | 62.9 | 250.3 | 86.0 | 99.3 | 96.1 | CCCC1(CCC)c2cc(C(=O)c3ccc([N+](=O)[O-])cc3)ccc2-c2ccc(C(C)=NOC(C)=O)cc21 [Compound D-7] | D (Less than 2 parts by weight of the photopolymerization initiator is dissolved.) | D (Less than 2 parts by weight of the photopolymerization initiator is dissolved.) | D (Less than 2 parts by weight of the photopolymerization initiator is dissolved.) | 19.3 | 20.2 | 20.8 | 22.6 | 21.4 | – | – | – | – | – | –
2 | 335.5 | 10.9 | 52.1 | 182.6 | 87.0 | 100.0 | 98.0 | CCCC1(CCC)c2cc(C(=O)c3ccc([N+](=O)[O-])cc3)ccc2-c2ccc(C(=NOC(C)=O)C(C)C)cc21 (mixture of isomers) [Compound D-8] | A (10 Parts by weight or more of the photopolymerization initiator is dissolved.) | A (10 Parts by weight or more of the photopolymerization initiator is dissolved.) | A (10 Parts by weight or more of the photopolymerization initiator is dissolved.) | 19.1 | 19.7 | 20.0 | 21.9 | 21.3 | 18.7 | 18.7 | 20.0 | 20.7 | 21.1 | solubility (in words) [3, 13]: additionally excellent solubility; transparency of photosensitive composition and formed product (in words) [6, 13]: additionally excellent transparency
3 | 343.0 | 29.1 | 63.7 | 228.9 | 70.9 | 99.8 | 96.4 | CCCC1(CCC)c2cc(C(=O)/C(C)=N/OC(C)=O)ccc2-c2ccc(C(=O)c3ccc([N+](=O)[O-])cc3)cc21 [Compound D-9] | C (An amount in the range of from 2 parts by weight or more to less than 5 parts by weight of the photopolymerization initiator is dissolved.) | C (An amount in the range of from 2 parts by weight or more to less than 5 parts by weight of the photopolymerization initiator is dissolved.) | D (Less than 2 parts by weight of the photopolymerization initiator is dissolved.) | 19.3 | 19.5 | 20.0 | 20.7 | – | 18.8 | 19.1 | 20.1 | 20.9 | 21.2 | 20-μm pattern line width ([4]; exposure energy quantity 80 mJ/cm^2): 21.7
